The text below walks through data of patent publication US20250011311A1, “AMIDO HETEROAROMATIC COMPOUNDS” (AstraZeneca AB, priority 2022, published 2025).

For series [1], the target named is recombinant 17bHSD13 (N2-K300) (Homo sapiens (Human), UniProt Q7Z5P4). The series can be described thus: In Vitro 17bHSD13 Enzyme Assay. It is filed as biochemical. The note with it: 80 nM 17bHSD13, 0.5 mM NAD, 20 μM Estradiol, 2.5 h; estradiol to estrone by LC-MS/MS. In short, it runs like this:
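Human 17bHSD13 (N2-K300, 80 nM) with 0.5 mM NAD, 20 μM estradiol and varied compound in 50 mM Tris-Cl pH 7.4, 5 mM EDTA, 0.01% DDM. Estrone/(estrone+estradiol) ratio read by LC-MS/MS (APCI, positive MRM). Inhibition normalised to DMSO and a known-inhibitor control; IC50 from curve fit.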

In series [2] the target is recombinant 17bHSD4 (M1-N311) (Homo sapiens (Human), UniProt P51659). The series can be described thus: In Vitro 17bHSD4 Enzyme Assay. It is filed as biochemical. The note with it: 40 nM 17bHSD4, 0.125 mM NAD, 15 μM Estradiol, 1.5 h; NADH fluorescence; read-out: 17HSD17b4 Enzyme assay IC50.
recombinant 17bHSD4 (M1-N311), sequence (P51659 1-311): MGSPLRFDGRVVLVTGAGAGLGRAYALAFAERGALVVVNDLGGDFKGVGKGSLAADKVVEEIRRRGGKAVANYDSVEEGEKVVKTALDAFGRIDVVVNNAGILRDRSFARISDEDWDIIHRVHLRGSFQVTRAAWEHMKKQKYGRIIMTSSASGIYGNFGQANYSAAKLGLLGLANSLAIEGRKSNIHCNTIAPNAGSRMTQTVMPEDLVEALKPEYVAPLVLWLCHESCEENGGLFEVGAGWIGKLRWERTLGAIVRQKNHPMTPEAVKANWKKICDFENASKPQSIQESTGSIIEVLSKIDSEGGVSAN
Another series relates to human hepatocytes. The series can be described thus: Assay A: Metabolic Stability in Human Hepatocytes. The conditions noted are these: cryopreserved human hepatocytes, 10^6 viable cells/mL, 1 μM compound, 37° C. The series is classed as in vitro ADME. In short, it runs like this:
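Cryopreserved hepatocytes (10^6 viable cells/mL) at 37° C with 1 μM test compound, sampled 0.5–120 min and quenched in MeCN. Parent measured by LC-MS/MS; CLint (μL/min/10^6 cells) from the slope of ln(parent concentration) vs time.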

recombinant 17bHSD13 (N2-K300), sequence (Q7Z5P4 2-300): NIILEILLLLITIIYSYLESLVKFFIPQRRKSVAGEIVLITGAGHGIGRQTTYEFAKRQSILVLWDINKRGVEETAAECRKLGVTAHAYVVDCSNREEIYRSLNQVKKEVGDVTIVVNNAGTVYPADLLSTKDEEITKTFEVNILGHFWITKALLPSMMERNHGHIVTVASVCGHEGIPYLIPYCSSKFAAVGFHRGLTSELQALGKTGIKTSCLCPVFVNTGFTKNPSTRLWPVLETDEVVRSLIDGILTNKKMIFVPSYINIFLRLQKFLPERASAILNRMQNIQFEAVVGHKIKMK

What is called IC50 is the point on the concentration scale where inhibition reaches its midpoint. Turning to `C[C@@H]1CN(C(=O)c2noc(-c3cc(F)c(F)c(O)c3F)n2)C[C@H](C)O1` [Example 87, ((2R,6S)-2,6-Dimethylmorpholino)(5-(2,4,5-trifluoro-3-hydroxyphenyl)-1,2,4-oxadiazol-3-yl)methanone], the figures for the IC50 in series [1] and in series [2] were 285 nM and > 200000 nM, respectively. In the series on human hepatocytes, the “Assay A: Human Heps Met Clint GMean CLint (μl/min/1E6)” value came out at 2.7 μl/min/1E6.
The matching figures for `CC1CN(C(=O)c2noc(-c3cc(F)c(F)c(O)c3F)n2)CC(C)(C)O1` (stereo not drawn) [Example 117, (5-(2,4,5-Trifluoro-3-hydroxyphenyl)-1,2,4-oxadiazol-3-yl)(2,2,6-trimethylmorpholino)methanone]: 234 nM, 39900 nM and 4.2 μl/min/1E6.
Regarding `COc1cccc(N2CCN(C(=O)c3noc(-c4cc(F)c(F)c(O)c4F)c3C#N)CC2)c1` [Example 16, 3-(4-(3-Methoxyphenyl)piperazine-1-carbonyl)-5-(2,4,5-trifluoro-3-hydroxyphenyl)isoxazole-4-carbonitrile], the half-inhibitory concentration (IC50) was determined as 137 nM in series [1] and 15400 nM in series [2]. Moreover, the “Assay A: Human Heps Met Clint GMean CLint (μl/min/1E6)” value in the series with human hepatocytes turned out to be 56.8 μl/min/1E6.
For `C[C@@H]1CN(C(=O)c2cnc(-c3cc(F)c(F)c(O)c3F)s2)C[C@H](C)O1` [Example 120, ((2R,6S)-2,6-Dimethylmorpholino)(2-(2,4,5-trifluoro-3-hydroxyphenyl)thiazol-5-yl)methanone], the IC50 in series [1] is 44 nM; in series [2] it was > 50000 nM. Besides, in the series with human hepatocytes, the “Assay A: Human Heps Met Clint GMean CLint (μl/min/1E6)” value came out at 13.3 μl/min/1E6.
The matching figures for `C[C@@H]1CN(C(=O)c2noc(-c3cc(F)c(F)c(O)c3F)n2)C[C@@H](C)O1` [Example 88, ((2R,6R)-2,6-Dimethylmorpholino)(5-(2,4,5-trifluoro-3-hydroxyphenyl)-1,2,4-oxadiazol-3-yl)methanone]: 468 nM, 36400 nM and 3.6 μl/min/1E6.
On the same counts, the results for `CC1(C)CN(C(=O)c2noc(-c3cc(F)c(F)c(O)c3F)n2)CC(C)(C)O1` [Example 32, (2,2,6,6-Tetramethylmorpholino)(5-(2,4,5-trifluoro-3-hydroxyphenyl)-1,2,4-oxadiazol-3-yl)methanone] are 159 nM, > 50000 nM and 4.1 μl/min/1E6.
In the case of `N#Cc1c(C(=O)N2Cc3ccc(F)cc3C2)noc1-c1cc(F)c(F)c(O)c1F` [Example 18, 3-(5-Fluoroisoindoline-2-carbonyl)-5-(2,4,5-trifluoro-3-hydroxyphenyl)isoxazole-4-carbonitrile], the IC50 in series [1] was 80 nM; in series [2], 17800 nM. Also, the “Assay A: Human Heps Met Clint GMean CLint (μl/min/1E6)” value with human hepatocytes is 17.2 μl/min/1E6.
On the same counts, the results for `N#Cc1ccc2c(c1)CN(C(=O)c1noc(-c3cc(F)c(F)c(O)c3F)c1C#N)CC2` [Example 29, 3-(7-Cyano-1,2,3,4-tetrahydroisoquinoline-2-carbonyl)-5-(2,4,5-trifluoro-3-hydroxyphenyl)isoxazole-4-carbonitrile] are 157 nM, 17600 nM and 16.9 μl/min/1E6.
On to `O=C(c1noc(-c2cc(F)c(F)c(O)c2F)n1)N1CCO[C@H]2CCC[C@@H]21` [Example 115, ((4aS,7aS)-Hexahydrocyclopenta[b][1,4]oxazin-4(4aH)-yl)(5-(2,4,5-trifluoro-3-hydroxyphenyl)-1,2,4-oxadiazol-3-yl)methanone], for which the 50% inhibitory concentration (IC50) was 154 nM in series [1] and > 50000 nM in series [2]. Further, the “Assay A: Human Heps Met Clint GMean CLint (μl/min/1E6)” value in the series on human hepatocytes is 6.2 μl/min/1E6.
The matching figures for `CC(C)CC1CN(C(=O)c2noc(-c3cc(F)c(F)c(O)c3F)n2)CCO1` (stereo not drawn) [Example 47, (2-Isobutylmorpholino)(5-(2,4,5-trifluoro-3-hydroxyphenyl)-1,2,4-oxadiazol-3-yl)methanone]: 183 nM, 47400 nM and 17.4 μl/min/1E6.
On the same counts, the results for `O=C(c1noc(-c2cc(F)c(F)c(O)c2F)n1)N1CCO[C@H]2CCC[C@H]21` [Example 112, ((4aR,7aS)-Hexahydrocyclopenta[b][1,4]oxazin-4(4aH)-yl)(5-(2,4,5-trifluoro-3-hydroxyphenyl)-1,2,4-oxadiazol-3-yl)methanone] are 197 nM, > 50000 nM and 7.4 μl/min/1E6.
On the same counts, the results for `C[C@@H]1CN(C(=O)c2noc(-c3cc(F)c(F)c(O)c3F)n2)[C@H](C)CO1` [Example 50, ((2R,5R)-2,5-Dimethylmorpholino)(5-(2,4,5-trifluoro-3-hydroxyphenyl)-1,2,4-oxadiazol-3-yl)methanone] are 499 nM, > 50000 nM and 4.3 μl/min/1E6.
As for `O=C(c1noc(-c2cc(F)c(F)c(O)c2F)n1)N1CC[C@H](Oc2ccccc2)C1` [Example 93, (S)-(3-Phenoxypyrrolidin-1-yl)(5-(2,4,5-trifluoro-3-hydroxyphenyl)-1,2,4-oxadiazol-3-yl)methanone], the half-maximal inhibitory concentration (IC50) in series [1] turned out to be 63 nM; in series [2] it was 22200 nM. Moreover, the “Assay A: Human Heps Met Clint GMean CLint (μl/min/1E6)” value with human hepatocytes came to 15.6 μl/min/1E6.
On the same counts, the results for `C[C@@H]1CN(C(=O)c2noc(-c3cc(F)c(F)c(O)c3F)c2C#N)C[C@H](C)O1` [Example 22, 3-((2R,6S)-2,6-Dimethylmorpholine-4-carbonyl)-5-(2,4,5-trifluoro-3-hydroxyphenyl)isoxazole-4-carbonitrile] are 532 nM, > 50000 nM and 6.3 μl/min/1E6.
On the same counts, the results for `O=C(c1noc(-c2cc(C(F)(F)F)[nH]c(=O)c2)n1)N1CCC(c2ccccc2)C1` (stereo not drawn) [Example 9, 4-(3-(3-Phenylpyrrolidine-1-carbonyl)-1,2,4-oxadiazol-5-yl)-6-(trifluoromethyl)pyridin-2(1H)-one] are 422 nM, > 50000 nM and 262.2 μl/min/1E6.
Take `O=C(c1ccc(-c2cc(F)c(F)c(O)c2F)s1)N1CC[C@H](c2ccccc2)C1` [Example 33, (R)-(3-Phenylpyrrolidin-1-yl)(5-(2,4,5-trifluoro-3-hydroxyphenyl)thiophen-2-yl)methanone]: the IC50 in series [1] worked out at 34 nM; in series [2], 8500 nM. Besides, the “Assay A: Human Heps Met Clint GMean CLint (μl/min/1E6)” value with human hepatocytes is reported as 124.3 μl/min/1E6.
For the compound `O=C(c1noc(-c2cc(F)c(F)c(O)c2F)n1)N1CC(c2ccc(F)cc2)C1` [Example 74, (3-(4-Fluorophenyl)azetidin-1-yl)(5-(2,4,5-trifluoro-3-hydroxyphenyl)-1,2,4-oxadiazol-3-yl)methanone], the half-maximal inhibitory concentration (IC50) was determined as 89 nM in series [1] and 21100 nM in series [2]. Further, in the series on human hepatocytes, the “Assay A: Human Heps Met Clint GMean CLint (μl/min/1E6)” value came out at 14.4 μl/min/1E6.
On to `O=C(c1noc(-c2cc(F)c(F)c(O)c2F)n1)N1CCCC(OCc2ccccc2)C1` (stereo not drawn) [Example 94, (3-(Benzyloxy)piperidin-1-yl)(5-(2,4,5-trifluoro-3-hydroxyphenyl)-1,2,4-oxadiazol-3-yl)methanone], for which the IC50 in series [1] was found to be 48 nM; in series [2] it was 23600 nM. Moreover, in the series on human hepatocytes, the “Assay A: Human Heps Met Clint GMean CLint (μl/min/1E6)” value stood at 17.3 μl/min/1E6.
